Test results: patent US9012512B2, “Aqueous extracts from monocotyledon plants and their use in cardioprotection” (priority 2008, dated 2015)

Columns and labels:
Format in all cases: cell-based
rat thoracic aorta [1] = experiment: Relaxation of phenylephrine-contracted rat aortic rings in the presence of acetylcholine; conditions: 0.3 μM phenylephrine, acetylcholine 3 μM present
Protocol: Male Sprague-Dawley rats, weighing 250-350 g (Laboratory Animal Science Center of the National Yang-Ming University, Taipei, Taiwan), were used in this study. The rats were allowed to acclimate in environmentally controlled quarters (20-22° C. with 12:12 hr light-dark cycles). Thoracic aorta was excised carefully and fixed isometrically in organ chambers (15 mL) containing a 37° C. modified Krebs' solution (120 mM NaCl, 4.5 mM KCl, 2.5 mM CaCl2, 1 mM MgSO4, 27 mM NaHCO3, 1 mM KH2PO4, 10 mM glucose, pH 7.4) through which a mixture of 95% O2-5% CO2 was continuously supplied. The aortic rings of 3-4 mm were equilibrated under passive tension of 1.8 g for 60 min. After equilibration, the aortic rings were stabilized with a near maximal contraction induced by 0.3 μM phenylephrine. When the rings achieved a stable level of contraction, 3 μM acetylcholine was added to the bath, in which the aorta rings were soaked, to assess endothelial integrity. Intimas were gently frayed with a cotton swab to disrupt the endothelium.
The relaxation effect of TAA on rat thoracic aorta in the presence of acetylcholine was also investigated. Vascular contraction in rat aortic rings was induced by 0.3 μM phenylephrine as described above. Acetylcholine (3 μM) was added to the bath, in which the aortic rings were soaked, to assess endothelial integrity. […]

rat thoracic aorta [2] = experiment: Vasorelaxing effect on phenylephrine-induced contraction of rat thoracic aortic rings
rat thoracic aorta [3] = experiment: Combined vasorelaxing effects of TAA with GTN or SNP: phenylephrine-induced tension in rat thoracic aorta; conditions: 0.1 μM agent alone; control vehicle 2.1 g
Protocol: The rats were allowed to acclimate in environmentally controlled quarters (20-22° C. with 12:12 hr light-dark cycles). […] After equilibration, the aortic rings were stabilized with a near maximal contraction induced by 0.3 μM phenylephrine. When the rings achieved a stable level of contraction, 3 μM acetylcholine was added to the bath, in which the aorta rings were soaked, to assess endothelial integrity. Intimas were gently frayed with a cotton swab to disrupt the endothelium.

In the case of `O=C(O)/C=C(\CC(=O)O)C(=O)O` [TAA, trans-aconitic acid], the increase of relaxation (rat thoracic aorta [1]; TAA 100 μM, n=16) is reported as 55%, the relaxation levels (rat thoracic aorta [1]; TAA 0.1-100 μM) is reported as “significant increase of relaxation levels” and the maximum relaxation induced (rat thoracic aorta [2]; TAA 100 μM, contraction induced by 10 μM phenylephrine, n=16) is reported as 40%. For the same compound, the “vasorelaxing effect in rat thoracic aorta” value (rat thoracic aorta [2]; TAA 100 μM, phenylephrine precontracted aortic rings) was “significant vasorelaxing effect” and the “relaxation in phenylephrine-induced contraction” value (rat thoracic aorta [2]; endothelium-intact preparations) was “concentration-dependent relaxation”.

`O=[N+]([O-])OCC(CO[N+](=O)[O-])O[N+](=O)[O-]` [GTN, glyceryltrinitrate] was tested, and the phenylephrine-induced tension (rat thoracic aorta [3]) was 1.3 g.
